Reference: patent US8067424B2, “Selective inhibitors for cyclin-dependent kinases” (Emory University, priority 2007, dated 2011)
Where two headings read alike, the source gives them in different places.

Columns and labels:
NEK7 = NEK7 (Homo sapiens, UniProt Q8TDX7); assay: Kinase screen: NEK7 assay; format: biochemical; conditions: read-out: Mean Remaining Enzyme Activity (%)
Experimental: Generally, the same procedure was used for all assays. Since the total assay volume was 25.5 microliters, 0.5 microliters of inhibitors at 51× assay concentration were added to the plates before any other addition.
The basic procedure was to add 0.5 microliters inhibitor/control in DMSO to plate. Fifteen microliters of enzyme/substrate/buffer mix were added and incubated for 5 min. Ten microliters MgATP at the relevant concentration were added and incubated for 30 min. The assay was stopped by adding 5 microliters of 3% orthophosphoric acid. The assay was transferred to a p81 filter plate and read in a scintillation counter of 30 sec/well. Note that this assay procedure was not followed for MKK1, which instead involved a two-step assay, and PKC alpha, which required the addition of lipid vesicles.
(500-1000 cpm/pmole) and incubated for 30 min at room temperature. Assays were stopped by addition of 5 μl of 0.5 M (3%) orthophosphoric acid and then harvested onto P81 Unifilter plates with a wash buffer of 50 mM orthophosphoric acid.

MCF-7 tumors = assay: MCF-7 tumor growth in nude mice, BS-194 subcutaneous; format: in vivo, Balb/c nude mice; conditions: subcutaneous twice daily, 14 days
Experimental: In all, 32 female 8- to 10-week Balb/c nude mice (Harlan UK) were randomly divided into three groups. The mice received 0.72 mg 60-day release E2 pellets (Innovative Research of America, USA), subcutaneously implanted in one flank. MCF7 cells, were trypsinized and 5×10^6 cells in 0.1 ml of PBS were subcutaneously injected into the other flank of each mouse and tumor volumes were measured every 2-3 days, according to the formula (tumor width squared×tumor length)/2. Animal weight was also recorded throughout the course of the study. The animals were injected subcutaneously with BS-194, prepared in 10% DMSO, 50 mM HCl, 5% Tween 20, and 85% Saline, twice daily for 14 days, at which point the animals were sacrificed. The xenograft experiments were conducted after appropriate ethical approval and licensing was obtained in accordance with the UK ‘Guidance on the operation of animals (Scientific Procedure) Act 1986 (HMSO, London, UK, 1990).

SF-295 [1] = system: SF-295
NCI/ADR-RES = conditions: for Mean Optical Densities / Percent Growth: NCI/ADR-RES
K-562 = assay: cells; conditions: Homo sapiens
COLO 205 = assay: cells; conditions: Homo sapiens
HT29 = assay: cells; conditions: Homo sapiens
SF-295 [2] = assay: cells; conditions: Homo sapiens
SF-539 = assay: cells; conditions: Homo sapiens
LOX IMVI = assay: cells; conditions: Homo sapiens
SK-OV-3 = assay: cells; conditions: Homo sapiens
TK-10 = assay: cells; conditions: Homo sapiens
MCF7 = assay: cells; conditions: Homo sapiens
[3] = NCI-H23, log10 concentration −4.0
[4] = NCI-H23, log10 concentration −5.0
[5] = NCI-H23, log10 concentration −6.0
[6] = NCI-H23, log10 concentration −7.0
[7] = NCI-H23, log10 concentration −8.0
[8] = NCI-H522, log10 concentration −4.0
[9] = NCI-H522, log10 concentration −5.0
[10] = NCI-H522, log10 concentration −6.0
[11] = NCI-H522, log10 concentration −7.0
[12] = NCI-H522, log10 concentration −8.0
[13] = SF-295, log10 concentration −4.0
[14] = SF-295, log10 concentration −5.0
[15] = SF-295, log10 concentration −6.0
[16] = SF-295, log10 concentration −7.0
[17] = SF-295, log10 concentration −8.0
[18] = UO-31, log10 concentration −4.0
[19] = UO-31, log10 concentration −5.0
[20] = UO-31, log10 concentration −6.0
[21] = UO-31, log10 concentration −7.0
[22] = UO-31, log10 concentration −8.0
[23] = 786-0, log10 concentration −4.0
[24] = 786-0, log10 concentration −5.0
[25] = 786-0, log10 concentration −6.0
[26] = 786-0, log10 concentration −7.0
[27] = 786-0, log10 concentration −8.0

Sequence of NEK7 (Q8TDX7 whole entry, species assumed): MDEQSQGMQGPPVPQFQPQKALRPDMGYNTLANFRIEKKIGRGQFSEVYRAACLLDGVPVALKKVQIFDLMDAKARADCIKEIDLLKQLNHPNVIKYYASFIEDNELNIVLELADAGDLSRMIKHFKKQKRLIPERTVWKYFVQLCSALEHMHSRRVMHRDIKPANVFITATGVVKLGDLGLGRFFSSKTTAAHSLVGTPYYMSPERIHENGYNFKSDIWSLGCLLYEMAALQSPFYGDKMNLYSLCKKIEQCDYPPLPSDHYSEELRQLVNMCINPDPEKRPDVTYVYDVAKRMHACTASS

`CC(C)c1cnn2c(NCc3ccccc3)cc(NCCCCCCCN)nc12` [BS-181] gave a remaining activity at 10 µM (NEK7) of 97%.

`CC(C)c1cnn2c(NCc3ccccc3)cc(N[C@@H](CO)[C@H](O)CO)nc12` [ICEC0318, (3S)-3-(7-(Benzylamino)-3-isopropylpyrazolo[1,5-a]pyrimidin-5-ylamino)butane-1,2,4-triol] was tested, and the “Change in animal weight” value (MCF-7 tumors) was “nearly constant”, the TGI (NCI-H23; NCI-H23 (Non-Small Cell Lung Cancer)) was greater than 1.00E−4 and the “Mean Optical Densities” value (NCI-H23; [3]) was 0.562. For the same compound, the “Percent Growth” value (NCI-H23; [3]) was 1%, the “Mean Optical Densities” value (NCI-H23; [4]) was 0.563 and the “Percent Growth” value (NCI-H23; [4]) was 1%. The “Mean Optical Densities” value (NCI-H23; [5]) was 0.633, the “Percent Growth” value (NCI-H23; [5]) was 6% and the “Mean Optical Densities” value (NCI-H23; [6]) was 1.639. For the same compound, the “Percent Growth” value (NCI-H23; [6]) was 81%, the “Mean Optical Densities” value (NCI-H23; [7]) was 1.802 and the “Percent Growth” value (NCI-H23; [7]) was 93%. The TGI (NCI-H522; NCI-H522 (Non-Small Cell Lung Cancer)) was 2.13E−6, the “Mean Optical Densities” value (NCI-H522; [8]) was 0.741 and the “Percent Growth” value (NCI-H522; [8]) was −17%. The “Mean Optical Densities” value (NCI-H522; [9]) was 0.640, the “Percent Growth” value (NCI-H522; [9]) was −29% and the “Mean Optical Densities” value (NCI-H522; [10]) was 1.075. For the same compound, the “Percent Growth” value (NCI-H522; [10]) was 14%, the “Mean Optical Densities” value (NCI-H522; [11]) was 2.156 and the “Percent Growth” value (NCI-H522; [11]) was 99%. For the same compound, the “Mean Optical Densities” value (NCI-H522; [12]) was 2.185, the “Percent Growth” value (NCI-H522; [12]) was 101% and the TGI (SF-295 [1]; SF-295 (CNS Cancer)) was 3.10E−5. For the same compound, the “Mean Optical Densities” value (SF-295 [1]; [13]) was 0.371, the “Percent Growth” value (SF-295 [1]; [13]) was −4% and the “Mean Optical Densities” value (SF-295 [1]; [14]) was 0.427. For the same compound, the “Percent Growth” value (SF-295 [1]; [14]) was 4%, the “Mean Optical Densities” value (SF-295 [1]; [15]) was 0.447 and the “Percent Growth” value (SF-295 [1]; [15]) was 6%. The “Mean Optical Densities” value (SF-295 [1]; [16]) was 1.288, the “Percent Growth” value (SF-295 [1]; [16]) was 83% and the “Mean Optical Densities” value (SF-295 [1]; [17]) was 1.492. The “Percent Growth” value (SF-295 [1]; [17]) was 101%, the TGI (UO-31; UO-31 (Renal Cancer)) was 2.07E−5 and the “Mean Optical Densities” value (UO-31; [18]) was 0.522. The “Percent Growth” value (UO-31; [18]) was −4%, the “Mean Optical Densities” value (UO-31; [19]) was 0.557 and the “Percent Growth” value (UO-31; [19]) was 2%. The “Mean Optical Densities” value (UO-31; [20]) was 0.578, the “Percent Growth” value (UO-31; [20]) was 4% and the “Mean Optical Densities” value (UO-31; [21]) was 1.371. For the same compound, the “Percent Growth” value (UO-31; [21]) was 89%, the “Mean Optical Densities” value (UO-31; [22]) was 1.378 and the “Percent Growth” value (UO-31; [22]) was 90%. For the same compound, the TGI (NCI/ADR-RES; NCI/ADR-RES (Breast Cancer)) was greater than 1.00E−4, the “Mean Optical Densities” value (NCI/ADR-RES; log10 concentration −4.0) was 0.531 and the “Percent Growth” value (NCI/ADR-RES; log10 concentration −4.0) was 10%. For the same compound, the “Mean Optical Densities” value (NCI/ADR-RES; log10 concentration −5.0) was 0.657, the “Percent Growth” value (NCI/ADR-RES; log10 concentration −5.0) was 22% and the “Mean Optical Densities” value (NCI/ADR-RES; log10 concentration −6.0) was 1.107. The “Percent Growth” value (NCI/ADR-RES; log10 concentration −6.0) was 63%, the “Mean Optical Densities” value (NCI/ADR-RES; log10 concentration −7.0) was 1.638 and the “Percent Growth” value (NCI/ADR-RES; log10 concentration −7.0) was 111%. For the same compound, the “Mean Optical Densities” value (NCI/ADR-RES; log10 concentration −8.0) was 1.587, the “Percent Growth” value (NCI/ADR-RES; log10 concentration −8.0) was 107% and the GI50 (K-562; K562) was 288 nM. It also gave a CC50 (K-562; K562, read-out: LC50) greater than 100 µM, a GI50 (COLO 205; COLO 205) of 147 nM and a CC50 (COLO 205; COLO 205, read-out: LC50) of 993 nM. For the same compound, the GI50 (HT29; HT-29) was 336 nM, the CC50 (HT29; HT-29, read-out: LC50) was greater than 100 µM and the GI50 (SF-295 [2]; SF-295) was 266 nM. The CC50 (SF-295 [2]; SF-295, read-out: LC50) was greater than 100 µM, the GI50 (SF-539; SF-539) was 199 nM and the CC50 (SF-539; SF-539, read-out: LC50) was 6.85 µM. For the same compound, the GI50 (LOX IMVI) was 171 nM, the CC50 (LOX IMVI; read-out: LC50) was greater than 100 µM and the GI50 (SK-OV-3; SK-OV-3) was 565 nM. It also gave a CC50 (SK-OV-3; SK-OV-3, read-out: LC50) greater than 100 µM, a GI50 (TK-10; TK-10) of 377 nM and a CC50 (TK-10; TK-10, read-out: LC50) greater than 100 µM. For the same compound, the GI50 (MCF7; MCF7) was 221 nM, the CC50 (MCF7; MCF7, read-out: LC50) was greater than 100 µM and the TGI (786-0; 786-0 (Renal Cancer)) was 8.99E−7. For the same compound, the “Mean Optical Densities” value (786-0; [23]) was 0.491, the “Percent Growth” value (786-0; [23]) was −21% and the “Mean Optical Densities” value (786-0; [24]) was 0.598. For the same compound, the “Percent Growth” value (786-0; [24]) was −4%, the “Mean Optical Densities” value (786-0; [25]) was 0.592 and the “Percent Growth” value (786-0; [25]) was −5%. For the same compound, the “Mean Optical Densities” value (786-0; [26]) was 1.769, the “Percent Growth” value (786-0; [26]) was 98% and the “Mean Optical Densities” value (786-0; [27]) was 1.824. For the same compound, the “Percent Growth” value (786-0; [27]) was 103%, the GI50 (786-0; Homo sapiens, 786-0) was 293 nM and the CC50 (786-0; Homo sapiens, 786-0, read-out: LC50) was greater than 100 µM.
